This assay has as its system H1650 lung cancer cells. Nature of the assay: Cell viability assay (MTT, IC50 determination). Format: cell-based. The note with it: Homo sapiens, read-out: H1650 cell viability IC50. The method, then: Cell viability assays were performed according to Denizot, F. and R. Lang, Journal of Immunological Methods, 1986. 89(22): p. 271-277. H1650 lung cancer cells were plated at 150,000 cells per well in a 12 well plate. Twenty-four hours after plating, cells were treated as described with increasing concentrations of drug and control. Forty-eight hours after drug treatment, cells were treated with 100 μL of 3-(4,5-Dimethylthiazol-2-yl)-2,5-diphenyltetrazolium bromide (MTT) and incubated for 2 hours at 37 C. The MTT solution was subsequently replaced with 300 μL of n-propyl alcohol and re-aliquoted to a 96 well plate. Spectrophotometric analysis of each solution was performed using a 96 well plate reader at 600 nm in triplicate.

[1] abbreviates: NCI-H1650, H1650 lung cancer cells, MTT, 48 hours after drug treatment.

Like-named read-outs stand apart in the source and are kept apart here.

Experimental findings from US10759790B2, “Heterocyclic constrained tricyclic sulfonamides as anti-cancer agents” (ICAHN SCHOOL OF MEDICINE AT MOUNT SINAI, priority 2015, dated 2020) are described below.

As for `O=S(=O)(N[C@@H]1COCC(n2c3ccccc3c3ccccc32)[C@H]1O)c1ccc(OC(F)(F)F)cc1` (mixture of isomers) [Example 1, Rac-N-(3R,4R,5S)-5-(9H-carbazol-9-yl)-4-hydroxytetrahydro-2H-pyran-3-yl)-4-(trifluoromethoxy)benzenesulfonamide], the 50% inhibitory concentration (IC50) under setting [1] came out at 15 µM.
The same measure, in the same setting: in the case of `CC(C)(C)OC(=O)N1CC(N2c3ccccc3Oc3ccccc32)[C@@H](O)[C@H](NS(=O)(=O)c2ccc(OC(F)(F)F)cc2)C1` (mixture of isomers) [Example 16, Rac-(3S,4R,5R)-tert-butyl 4-hydroxy-3-(10H-phenoxazin-10-yl)-5-(4-(trifluoromethoxy)phenylsulfonamido)piperidine-1-carboxylate] it was 10 µM; in that of `O=S(=O)(N[C@@H]1CNCC(N2c3ccccc3Oc3ccccc32)[C@H]1O)c1ccc(OC(F)(F)F)cc1` (mixture of isomers) [Example 17, Rac-N-((3R,4R,5S)-4-hydroxy-5-(10H-phenoxazin-10-yl)piperidin-3-yl)-4-(trifluoromethoxy)benzenesulfonamide], 5 µM; in that of `CC(=O)N1CC(NS(=O)(=O)c2ccc(OC(F)(F)F)cc2)[C@H](O)C(N2c3ccccc3Oc3ccccc32)C1` (mixture of isomers) [Example 18, Rac-N-((3R,4R,5S)-1-acetyl-4-hydroxy-5-(10H-phenoxazin-10-yl)piperidin-3-yl)-4-(trifluoromethoxy)benzenesulfonamide], 20 µM.
For `O=S(=O)(N[C@@H]1COCC(N2c3ccccc3Oc3ccccc32)[C@H]1O)c1ccc(OC(F)(F)F)cc1` (relative stereo) [Example 2, N-(4-hydroxy-5-(10H-phenoxazin-10-yl)tetrahydro-2H-pyran-3-yl)-4-(trifluoromethoxy)benzenesulfonamide], the IC50 under setting [1] was 15 µM.
With `O=S(=O)(N[C@H]1COC[C@@H](N2c3ccccc3Oc3ccccc32)[C@@H]1O)c1ccc(OC(F)(F)F)cc1` [Example 2b, N-((3S,4S,5R)-4-hydroxy-5-(10H-phenoxazin-10-yl)tetrahydro-2H-pyran-3-yl)-4-(trifluoromethoxy)benzenesulfonamide], the IC50 under setting [1] turned out to be 15 µM.
In the case of `O=S(=O)(N[C@@H]1COC[C@H](n2c3ccc(F)cc3c3cc(F)ccc32)[C@H]1O)c1ccc(OC(F)(F)F)cc1` [Example 3, N-((3R,4R,5S)-5-(3,6-difluoro-9H-carbazol-9-yl)-4-hydroxytetrahydro-2H-pyran-3-yl)-4-(trifluoromethoxy)benzenesulfonamide], the IC50 under setting [1] came out at 10 µM.
Turning to `O=S(=O)(N[C@@H]1COC[C@H](n2c3ccccc3c3cc(F)ccc32)[C@H]1O)c1ccc(OC(F)(F)F)cc1` [Example 4, N-((3R,4R,5S)-5-(3-fluoro-9H-carbazol-9-yl)-4-hydroxytetrahydro-2H-pyran-3-yl)-4-(trifluoromethoxy)benzenesulfonamide], under setting [1], the IC50 was found to be 15 µM.
Consider `O=S(=O)(N[C@@H]1COC[C@H](n2c3ccc(Cl)cc3c3cc(Cl)ccc32)[C@H]1O)c1ccc(OC(F)(F)F)cc1` [Example 5, N-((3R,4R,5S)-5-(3,6-dichloro-9H-carbazol-9-yl)-4-hydroxytetrahydro-2H-pyran-3-yl)-4-(trifluoromethoxy)benzenesulfonamide], for which the IC50 under setting [1] worked out at 5 µM.
Regarding `[N-]=[N+]=Nc1ccc(S(=O)(=O)N[C@@H]2COC[C@H](N3c4ccccc4Oc4ccccc43)[C@H]2O)cc1` [Example 6], the IC50 (NCI-H1650, 48 h) is 25 µM.
Consider `O=S(=O)(N[C@@H]1COC[C@H](N2c3ccccc3Oc3ccc(F)cc32)[C@H]1O)c1ccc(OC(F)(F)F)cc1` [Example 7, N-((3R,4R,5S)-5-(2-fluoro-10H-phenoxazin-10-yl)-4-hydroxytetrahydro-2H-pyran-3-yl)-4-(trifluoromethoxy)benzenesulfonamide], for which, under setting [1], the IC50 is 15 µM.
For the compound `O=S(=O)(N[C@@H]1COC[C@H](N2c3ccccc3Oc3ccc(C(F)(F)F)cc32)[C@H]1O)c1ccc(OC(F)(F)F)cc1` [Example 8, N-((3R,4R,5S)-4-hydroxy-5-(2-(trifluoromethyl)-10H-phenoxazin-10-yl)tetrahydro-2H-pyran-3-yl)-4-(trifluoromethoxy)benzenesulfonamide], under setting [1], the IC50 worked out at 10 µM.
With `O=S(=O)(N[C@@H]1COC[C@H](N2c3ccccc3Oc3cc(F)ccc32)[C@H]1O)c1ccc(OC(F)(F)F)cc1` [Example 11, N-((3R,4R,5S)-5-(3-fluoro-10H-phenoxazin-10-yl)-4-hydroxytetrahydro-2H-pyran-3-yl)-4-(trifluoromethoxy)benzenesulfonamide], the IC50 under setting [1] came to 10 µM.
Take `O=S(=O)(N[C@@H]1COC[C@H](N2c3ccc(Cl)cc3Oc3cc(Cl)ccc32)[C@H]1O)c1ccc(OC(F)(F)F)cc1` [Example 12, N-((3R,4R,5S)-5-(3,7-dichloro-10H-phenoxazin-10-yl)-4-hydroxytetrahydro-2H-pyran-3-yl)-4-(trifluoromethoxy)benzenesulfonamide]: under setting [1], the IC50 was found to be 10 µM.
The same measure, in the same setting: in the case of `O=S(=O)(N[C@@H]1COC[C@H](N2c3ccccc3Oc3cc(Cl)ccc32)[C@H]1O)c1ccc(OC(F)(F)F)cc1` [Example 13, N-((3R,4R,5S)-5-(3-chloro-10H-phenoxazin-10-yl)-4-hydroxytetrahydro-2H-pyran-3-yl)-4-(trifluoromethoxy)benzenesulfonamide] it was 5 µM; in that of `O=S(=O)(N[C@@H]1COC[C@H](N2c3ccc(C(F)(F)F)cc3Oc3cc(C(F)(F)F)ccc32)[C@H]1O)c1ccc(OC(F)(F)F)cc1` [Example 14, N-((3R,4R,5S)-5-(3,7-bis(trifluoromethyl)-10H-phenoxazin-10-yl)-4-hydroxytetrahydro-2H-pyran-3-yl)-4-(trifluoromethoxy)benzenesulfonamide], 5 µM.
As to `O=S(=O)(N[C@@H]1COC[C@H](N2c3ccccc3Oc3cc(C(F)(F)F)ccc32)[C@H]1O)c1ccc(OC(F)(F)F)cc1` [Example 15, N-((3R,4R,5S)-4-hydroxy-5-(3-(trifluoromethyl)-10H-phenoxazin-10-yl)tetrahydro-2H-pyran-3-yl)-4-(trifluoromethoxy)benzenesulfonamide], under setting [1], the IC50 was determined as 5 µM.
As for `CC(C)(C)OC(=O)N1C[C@@H](NS(=O)(=O)c2ccc(OC(F)(F)F)cc2)[C@H](O)[C@@H](N2c3ccccc3Oc3ccccc32)C1` [Example 16a, (3S,4R,5R)-tert-butyl 4-hydroxy-3-(10H-phenoxazin-10-yl)-5-(4-(trifluoromethoxy)phenylsulfonamido)piperidine-1-carboxylate], under setting [1], the IC50 came out at 10 µM.
The same measure, in the same setting: in the case of `CC(C)(C)OC(=O)N1C[C@H](NS(=O)(=O)c2ccc(OC(F)(F)F)cc2)[C@@H](O)[C@H](N2c3ccccc3Oc3ccccc32)C1` [Example 16b, (3R,4S,5S)-tert-butyl 4-hydroxy-3-(10H-phenoxazin-10-yl)-5-(4-(trifluoromethoxy)phenylsulfonamido)piperidine-1-carboxylate] it was 10 µM; in that of `O=S(=O)(N[C@@H]1CNC[C@H](N2c3ccccc3Oc3ccccc32)[C@H]1O)c1ccc(OC(F)(F)F)cc1` [Example 17a, N-((3R,4R,5S)-4-hydroxy-5-(10H-phenoxazin-10-yl)piperidin-3-yl)-4-(trifluoromethoxy)benzenesulfonamide], 15 µM.
On to `CC(=O)N1C[C@@H](NS(=O)(=O)c2ccc(OC(F)(F)F)cc2)[C@H](O)[C@@H](N2c3ccccc3Oc3ccccc32)C1` [Example 18a, N-((3R,4R,5S)-1-acetyl-4-hydroxy-5-(10H-phenoxazin-10-yl)piperidin-3-yl)-4-(trifluoromethoxy)benzenesulfonamide], for which the IC50 (NCI-H1650, 48 h) is 25 µM.
With `CC(=O)N1C[C@H](NS(=O)(=O)c2ccc(OC(F)(F)F)cc2)[C@@H](O)[C@H](N2c3ccccc3Oc3ccccc32)C1` [Example 18b, N-((3S,4S,5R)-1-acetyl-4-hydroxy-5-(10H-phenoxazin-10-yl)piperidin-3-yl)-4-(trifluoromethoxy)benzenesulfonamide], the IC50 (NCI-H1650, 48 h) worked out at 15 µM.
In the case of `CN1C[C@@H](NS(=O)(=O)c2ccc(OC(F)(F)F)cc2)[C@H](O)[C@@H](N2c3ccccc3Oc3ccccc32)C1` [Example 19a], the IC50 under setting [1] was determined as 25 µM.
Same read-out and setting: in the case of `CN1C[C@H](NS(=O)(=O)c2ccc(OC(F)(F)F)cc2)[C@@H](O)[C@H](N2c3ccccc3Oc3ccccc32)C1` [Example 19b, N-((3S,4S,5R)-4-hydroxy-1-methyl-5-(10H-phenoxazin-10-yl)piperidin-3-yl)-4-(trifluoromethoxy)benzenesulfonamide] it was 15 µM.
Take `COC(=O)N1C[C@@H](NS(=O)(=O)c2ccc(OC(F)(F)F)cc2)[C@H](O)[C@@H](N2c3ccccc3Oc3ccccc32)C1` [Example 20a, (3S,4R,5R)-methyl 4-hydroxy-3-(10H-phenoxazin-10-yl)-5-(4-(trifluoromethoxy)phenylsulfonamido)piperidine-1-carboxylate]: the IC50 (NCI-H1650, 48 h) worked out at 15 µM.
Take `COC(=O)N1C[C@H](NS(=O)(=O)c2ccc(OC(F)(F)F)cc2)[C@@H](O)[C@H](N2c3ccccc3Oc3ccccc32)C1` [Example 20b, (3R,4S,5S)-methyl 4-hydroxy-3-(10H-phenoxazin-10-yl)-5-(4-(trifluoromethoxy)phenylsulfonamido)piperidine-1-carboxylate]: the IC50 (NCI-H1650, 48 h) is 5 µM.
`O=S(=O)(N[C@@H]1CNC[C@H](n2c3ccccc3c3ccccc32)[C@H]1O)c1ccc(OC(F)(F)F)cc1` [Example 41a, N-((3R,4R,5S)-5-(9H-carbazol-9-yl)-4-hydroxypiperidin-3-yl)-4-(trifluoromethoxy)benzenesulfonamide]: the IC50 under setting [1] stood at 10 µM.
Still for that read-out and setting: the same measure for `O=S(=O)(N[C@H]1CNC[C@@H](n2c3ccccc3c3ccccc32)[C@@H]1O)c1ccc(OC(F)(F)F)cc1` [Example 41b, N-((3S,4S,5R)-5-(9H-carbazol-9-yl)-4-hydroxypiperidin-3-yl)-4-(trifluoromethoxy)benzenesulfonamide]: 10 µM.
